Data: US10668055B2, “Cancer treatment using combinations of ERK and RAF inhibitors” (BIOMED VALLEY DISCOVERIES, INC., priority 2013, dated 2020)

Assays:
G-361 = test: Single agent proliferation assay (CellTiter-Glo, 72 h); type: cell-based; conditions: G-361, 72 h
Protocol: (§1) Cells were seeded in 96-well plates at the densities and media conditions indicated in Table 17 and allowed to adhere overnight prior to addition of compound or vehicle control. Compounds were prepared from DMSO stocks to give the desired final concentrations. The final DMSO concentration was constant at 0.1%. Test compounds were incubated with the cells for 72 h at 37° C., 5% CO2 in a humidified atmosphere. CellTiter-Glo® reagent (Promega, Madison, Wis.) was added according to manufacturer's instructions and luminescence detected using the BMG FLUOstar plate reader (BMG Labtech, Ortenberg, Germany). The average media only background value was deducted and the data analysed using a 4-parameter logistic equation in GraphPad Prism (GraphPad Software, La Jolla, Calif.).

A375 = test: as above; type: cell-based, human; conditions: A375, 72 h
Protocol: as §1

[1] = tested on: A375 human melanoma xenograft; test: A375 in vivo study: tumor growth delay and regression responses; design: species or system athymic nude mice
Protocol: Female athymic nude mice (Crl:NU(Ncr)-Foxn/^nu, Charles River) were nine weeks old with a body weight (BW) range of 17.5 to 26.2 grams on Day 1 of the study. The animals were fed ad libitum water (reverse osmosis, 1 ppm CI), and NIH 31 Modified and Irradiated Lab Diet® consisting of 18.0% crude protein, 5.0% crude fat, and 5.0% crude fiber. The mice were housed on irradiated Enrich-o'cobs™ Laboratory Animal Bedding in static microisolators on a 12-hour light cycle at 20-22° C. (68-72° F.) and 40-60% humidity. The recommendations of the Guide for Care and Use of Laboratory Animals with respect to restraint, husbandry, surgical procedures, feed and fluid regulation, and veterinary care were complied with.
Tumor xenografts were initiated with A375 human melanomas by serial subcutaneous transplantation in athymic nude mice. On the day of tumor implant, each test mouse received a 1 mm^3 A375 fragment implanted subcutaneously in the right flank, and tumor growth was monitored as the average size approached the target range of 80 to 120 mm^3. Tumors were measured in two dimensions using calipers, and volume was calculated using the formula: […]
Ten days after tumor implantation, designated as Day 1 of the study, the animals were sorted into nine groups (Groups 1-9) each consisting of fifteen mice and one group (Group 10) consisting of ten mice. Individual tumor volumes ranged from 75 to 144 mm^3 and group mean tumor volumes were 110 or 111 mm^3.
On Day 1 of the study, mice were sorted into nine groups (Group 1-9) each consisting of fifteen mice and one group (Group 10) consisting of ten mice, and dosing was initiated according to the treatment plan summarized in Table 15 below. Each dose was given by oral gavage (p.o.) in a dosing volume of 10 mL/kg (0.2 mL per 20 grams of body weight), scaled to the body weight of each individual animal. The vehicle and dabrafenib doses were to be given once daily until study end (qd to end), whereas the BVD-523 doses were to be given twice daily until study end (bid to end). For bid dosing, dosing was initiated in the afternoon on Day 1, so that one dose was given on the first day (“first day 1 dose”).
Due to the striking response to combination treatment, dosing in Groups 2-5 was stopped on Day 20 in order to monitor tumor re-growth. Dosing was to be re-initiated in a group when the mean tumor burden reached 1000 mm^3. By Day 42, the 1000 mm^3 mean tumor burden had not been reached in any of the combination groups. Dosing was re-initiated to permit post-final dose serum and tumor sampling for pharmacokinetic analyses. […] The final dosing schedules are shown below in Table 16.
Tumors were measured using calipers twice per week, and each animal was euthanized when its tumor reached the pre-determined tumor volume endpoint of 2000 mm^3 or on the final day, whichever came first. Animals that exited the study for tumor volume endpoint were documented as euthanized for tumor progression (TP), with the date of euthanasia. The time to endpoint (TTE) for analysis was calculated for each mouse by the following equation:
[formula] where TTE is expressed in days, endpoint volume is expressed in mm^3, b is the intercept, and m is the slope of the line obtained by linear regression of a log-transformed tumor growth data set. The data set consists of the first observation that exceeded the endpoint volume used in analysis and the three consecutive observations that immediately preceded the attainment of this endpoint volume. The calculated TTE is usually less than the TP date, the day on which the animal was euthanized for tumor size. […] Any animal classified as having died from NTR (non-treatment-related) causes due to accident (NTRa) or due to unknown etiology (NTRu) were excluded from TTE calculations (and all further analyses). Animals classified as TR (treatment-related) deaths or NTRm (non-treatment-related death due to metastasis) were assigned a TTE value equal to the day of death. […]

A375 cells = test: Combination study, 10×8 dose matrix, Alamar Blue / CellTiter-Glo, Bliss additivity model; type: cell-based, human; conditions: single agent
Protocol: For combination studies, A375 cells (ATCC) were seeded into triplicate 96-well plates at a cell density of 3000 cells/well in DMEM plus 10% FBS and allowed to adhere overnight prior to addition of test compound or vehicle control. Combinations were tested using a 10×8 dose matrix with a final DMSO concentration of 0.2%. A 96 hour assay incubation period followed, with subsequent addition of Alamar Blue 10% (v/v) and 4 hours incubation prior to reading on a fluorescent plate reader. After reading Alamar Blue, the medium/Alamar Blue mix was flicked off and 100 μl of CellTiter-Glo/PBS (1:1) added and the plates processed as per the manufacturer's instructions (Promega). Media only background values were subtracted before the data was analysed. The Bliss additivity model was then applied.
In brief, predicted fractional inhibition values for combined inhibition were calculated using the equation Cbliss=A+B−(A×B) where A and B are the fractional inhibitions obtained by drug A alone or drug B alone at specific concentrations. Cbliss is the fractional inhibition that would be expected if the combination of the two drugs were exactly additive. Cbliss values are subtracted from the experimentally observed fractional inhibition values to give an ‘excess over Bliss’ value. Excess over Bliss values greater than 0 indicate synergy, whereas values less than 0 indicate antagonism. […]

[2] = tested on: melanoma xenograft model derived from biopsies obtained from a patient; test: Melanoma xenograft model derived from patient biopsies after progression on vemurafenib; type: in vivo; conditions: model with acquired cross-resistance
[3] = A375 in vivo study: toxicity (body weight, deaths, side effects)
Text: Animals were weighed daily on Days 1-5, then twice per week until completion of the study. […] Individual body weight loss was monitored as per protocol, and any animal that exceeded the limits for acceptable body weight loss was euthanized. Group mean body weight loss also was monitored as per protocol. Dosing was to be suspended in any group that exceeded the limits for acceptable mean body weight loss. If mean body weight recovered, then dosing was to be resumed in that group, but at a lower dosage or less frequent dosing schedule.
Acceptable toxicity for the maximum tolerated dose (MTD) was defined as a group mean body-weight loss of less than 20% during the study and not more than 10% treatment-related (TR) deaths. […] A death was classified as non-treatment-related (NTR) if there was no evidence that death was related to treatment side effects. NTR deaths were further characterized based on cause of death. A death was classified as NTRa if it resulted from an accident or human error. […] A death was classified as NTRu if the cause of death was unknown and there was no available evidence of death related to treatment side effects, metastasis, accident or human error, although death due to treatment side effects cannot be excluded.

SMILES: CCCS(=O)(=O)Nc1ccc(F)c(C(=O)c2c[nH]c3ncc(-c4ccc(Cl)cc4)cc23)c1F [Vemurafenib]
- IC50 (G-361; Homo sapiens): 248 nM
- IC50 (A375; Homo sapiens, A-375): 47 nM

SMILES: CC(C)(C)c1nc(-c2cccc(NS(=O)(=O)c3c(F)cccc3F)c2F)c(-c2ccnc(N)n2)s1 [Dabrafenib]
- % TGD ([1]; G6: 50 mg/kg po qd to end): 75%
- CR (complete regressions) ([1]; G6: 50 mg/kg po qd to end): 0
- Median TTE ([1]; G6: 50 mg/kg po qd to end): 16.1 days
- PR (partial regressions) ([1]; G6: 50 mg/kg po qd to end): 0
- T-C ([1]; G6: 50 mg/kg po qd to end): 6.9 days
- TFS (tumor free survivors) ([1]; G6: 50 mg/kg po qd to end): 0
- Tumors that attained the 2000 mm^3 endpoint volume ([1]; G6: 50 mg/kg po qd to end): All
- % TGD ([1]; G7: 100 mg/kg po qd to end): 210%
- CR (complete regressions) ([1]; G7: 100 mg/kg po qd to end): 0
- Median TTE ([1]; G7: 100 mg/kg po qd to end): 28.5 days
- PR (partial regressions) ([1]; G7: 100 mg/kg po qd to end): 1
- T-C ([1]; G7: 100 mg/kg po qd to end): 19.3 days
- TFS (tumor free survivors) ([1]; G7: 100 mg/kg po qd to end): 0
- Tumors that attained the 2000 mm^3 endpoint volume ([1]; G7: 100 mg/kg po qd to end): 13/15
- MTV (n) D45 ([1]; G7: 100 mg/kg po qd to end, Day 45): 282 (2) imd
- PR (partial regressions) ([1]; G7: 100 mg/kg po qd to end, listed as dabrafenib): One and one
- MTV ([1]; G7: 100 mg/kg po qd to end, two tumors remaining on Day 45): 282 mm^3
- Sensitivity of A375 cells (BRAF V600E) (A375 cells): sensitive
- IC50 (G-361; Homo sapiens): ~1.4 nM
- Anti-tumor response [2]: insensitive
- Deaths NTR ([3]; G6: 50 mg/kg po qd to end): 0
- Deaths TR ([3]; G6: 50 mg/kg po qd to end): 0
- Deaths NTR ([3]; G7: 100 mg/kg po qd to end): 0
- Deaths TR ([3]; G7: 100 mg/kg po qd to end): 0
- Signs of treatment-related side effects ([3]; mono- and combination therapy groups): no noteworthy signs of treatment-related side effects
- IC50 (A375; Homo sapiens, A-375): ~0.7 nM

SMILES: N#Cc1c(Oc2ccc(F)c(NC(=O)Cc3cccc(C(F)(F)F)c3)c2)ccc2nc(NC(=O)C3CC3)sc12 [TAK-632]
- IC50 (G-361): 164 nM
- IC50 (A375): 26 nM

SMILES: Cn1nnc2c(C(N)=O)ncn2c1=O [Temozolomide]
- % TGD ([1]; G10: 150 mg/kg po qd × 5): 14%
- CR (complete regressions) ([1]; G10: 150 mg/kg po qd × 5): 0
- Median TTE ([1]; G10: 150 mg/kg po qd × 5): 10.5 days
- PR (partial regressions) ([1]; G10: 150 mg/kg po qd × 5): 0
- T-C ([1]; G10: 150 mg/kg po qd × 5): 1.3 days
- TFS (tumor free survivors) ([1]; G10: 150 mg/kg po qd × 5): 0
- Deaths NTR ([3]; G10: 150 mg/kg po qd × 5): 0
- Deaths TR ([3]; G10: 150 mg/kg po qd × 5): 0
- Mean BW Nadir ([3]; G10: 150 mg/kg po qd × 5, nadir on Day 5): −1.6% Day 5
